# Test results published in patent US10874682B2, “Compositions and the use thereof for treating or preventing rosacea” (NESTLÉ SKIN HEALTH SA, priority 2016, dated 2020).
# System: arachidonic acid-induced ear edema
# Assay: Arachidonic acid-induced mouse ear edema test, single topical application
# Assay type: in vivo, Balb/c mice
# Set-up: Mean ear edema: unit not given here
# Settings: indomethacin 5%, ivermectin 1%, diclofenac 1%; for Mean ear edema: single topical application on right ear with AA 4%; for Inhibition vs AA 4%: single topical application with AA 4%
# Procedure: Example 1: Evaluation of the Anti-Inflammatory Activity of Ivermectin and Diclofenac after a Single Topical Application in the Arachidonic Acid-Induced Mouse Ear Edema Test on Balb/c Mice
# Arachidonic acid is dissolved in a mixture of THF/Methanol at 4%.
# Tested compounds were dissolved in arachidonic acid solution, at final concentration.
# 20 μl of the tested compound is dissolved in arachidonic acid solution and applied on the internal side of the right ear.
# The ear thickness is measured at T=0 h, T+1 h, T+2 h, T+4 h.
# THF/Methanol is used as vehicle control.
# Indomethacin 5% is used as positive control and arachidonic acid at 4% in THF/Methanol is used as inductor of inflammation.
# [1] = ear thickness measurement after 1 h
# [2] = ear thickness measurement after 2 h
# [3] = ear thickness measurement after 4 h
Compound,Mean ear edema (1 h measurement),Mean ear edema (2 h measurement),Mean ear edema (4 h measurement),Inhibition vs AA 4% (1 h measurement),Inhibition vs AA 4% (2 h measurement),Inhibition vs AA 4% (4 h measurement),inhibition of the ear edema caused by arachidonic acid [1],inhibition of the ear edema caused by arachidonic acid [2],inhibition of the ear edema caused by arachidonic acid [3]
"CCCCC/C=C\C/C=C\C/C=C\C/C=C\CCCC(=O)O [Arachidonic acid (AA), Arachidonic acid]",18.8,16.2,13.4,–,–,–,–,–,–
"O=C(O)Cc1ccccc1Nc1c(Cl)cccc1Cl [diclofenac, 2-(2-(2,6-dichlorophenylamino)phenyl)acetic acid]",6,4,3,68.1,75.3,77.6,68%,75%,78%
COc1ccc2c(c1)c(CC(=O)O)c(C)n2C(=O)c1ccc(Cl)cc1 [indomethacin],1,1,1,94.7,93.8,92.5,95%,94%,92.5%
ivermectin,8.2,8.6,6.2,56.4,46.9,53.7,56%,47%,54%
